Data taken from article PMC5075052, “Modulation of the Substitution Pattern of 5-Aryl-2-Aminoimidazoles Allows Fine-Tuning of Their Antibiofilm Activity Spectrum and Toxicity” (Antimicrobial Agents and Chemotherapy, 2016).
Where two headings read alike, the source gives them in different places.

Experiments:
S. aureus ATCC 6538 = assay: Monospecies bacterial biofilm inhibition, static peg assay (Calgary device, crystal violet; planktonic OD600); format: cell-based, Staphylococcus aureus; conditions: Staphylococcus aureus
Description: (§1) A static peg assay, described previously ([27], [74]), was used for bacterial biofilm formation. The Calgary biofilm device consists of a platform carrying 96 polystyrene pegs (Nunc no. 445497) that fits as a microtiter plate lid, with 1 peg hanging into each microtiter plate well (Nunc no. 269789). Twofold serial dilutions of the compounds (dissolved in 100% dimethyl sulfoxide [DMSO] or ethanol) in 100 μl liquid broth (TSB diluted 1/20) per well were prepared in the microtiter plate in duplicate or triplicate with a maximum concentration of 1,600 μM and a minimum concentration of 0.8 μM. Subsequently, an overnight culture of S. Typhimurium ATCC 14028, P. aeruginosa PA14, E. coli TG1, S. epidermidis, S. aureus SH1000, or S. aureus ATCC 6538 (all grown in LB) was diluted 1:100 into TSB diluted 1/20 (or TSB for S. epidermidis, S. aureus SH1000, and S. aureus ATCC 6538), whereas overnight cultures of S. liquefaciens MG44 and B. cepacia LMG1222T were diluted 1:50 into TSB diluted 1/20. P. gingivalis ATCC 33277 cultures were diluted in TSB diluted 1/20 to have a final concentration of 1 × 10^8 cells/ml. Next, 100 μl was added to each well of the microtiter plate, resulting in a total volume of 200 μl medium per well (final concentration range of compounds, 800 μM [2% DMSO or ethanol] to 0.4 μM [0.001% DMSO or ethanol]). In the next step, the pegged lid was placed on the microtiter plate and the plate was incubated for 24 h or 48 h at 25°C or 37°C without shaking. At 37°C, the plates were placed in a sealed container with wet towels on the bottom to prevent evaporation of the growth medium. Biofilms of P. gingivalis ATCC 33277 were grown anaerobically at 37°C for 72 h. During this incubation period, biofilms were formed on the surface of the pegs. After incubation, the optical density at 600 nm (OD600) for the planktonic cells in the microtiter plate was measured using a Synergy MX multimode reader (BioTek, Winooski, VT). This gives a first indication of the effect of the compounds on planktonic growth. For quantification of biofilm formation, the pegs were washed once in 200 μl PBS. The remaining attached bacteria were stained for 30 min with 200 μl 0.1% (wt/vol) crystal violet in an isopropanol-methanol-PBS solution (1:1:18, vol/vol). Excess stain was rinsed off by placing the pegs in a 96-well plate filled with 200 μl distilled water per well. After air drying of the pegs (30 min), the dye bound to the adherent biofilm was extracted with 30% glacial acetic acid (200 μl per well of a 96-well plate). The optical density at 570 nm (OD570) of each well was measured using a Synergy MX multimode reader (BioTek, Winooski, VT). The concentration of each compound needed to inhibit biofilm formation by 50% (BIC50) and the concentration of each compound needed to inhibit planktonic growth by 50% (IC50) were determined from the concentration gradient by using nonlinear curve fitting (GraphPad Prism software, version 5; GraphPad Software, Inc., La Jolla, CA). In the same assay, the effect on planktonic growth was evaluated. The activity was considered biofilm specific if the BIC50 was at least two times lower than the IC50. Data represent the means from at least 3 technical repeats with the corresponding 95% confidence intervals (provided in the supplemental material).

P. aeruginosa PA14 = assay: Monospecies bacterial biofilm inhibition, static peg assay; format: cell-based, Pseudomonas aeruginosa; conditions: Pseudomonas aeruginosa
Description: as §1

[1] = system: S. Typhimurium ATCC 14028; assay: as above; format: cell-based, Salmonella enterica serovar Typhimurium; conditions: Salmonella enterica; S. Typhimurium ATCC 14028, 25°C; read-out: BIC50
Description: as §1

S. liquefaciens MG44 = assay: as above; format: cell-based, Serratia liquefaciens; conditions: Serratia liquefaciens
Description: as §1

C. albicans SC5314 = assay: Inhibition of C. albicans biofilms, CellTiter-Blue quantification; format: cell-based, Candida albicans; conditions: Candida albicans; C. albicans SC5314, 37°C, CTB method; read-out: BIC50 (μM) for C. albicans SC5314 (37°C)
Description: The potential of the compounds to prevent C. albicans SC5314 biofilm formation was assessed using the CellTiter-Blue (CTB) quantification method ([75]). […]. Twofold serial dilutions of the compounds (dissolved in 100% DMSO or ethanol) in 100 μl RPMI 1640 medium per well were prepared in a round-bottom polystyrene 96-well microtiter plate (TPP; Trasadingen, Switzerland) in duplicate or triplicate with a maximum concentration of 1,600 μM and a minimum concentration of 0.8 μM. One hundred microliters of the cell suspension was added to each well of the microtiter plate, resulting in a total volume of 200 μl medium per well (final concentration range of compounds, 800 μM [2% DMSO or ethanol] to 0.4 μM [0.001% DMSO or ethanol]). After 16 h of static incubation at 37°C, the biofilms were washed and quantified by the CTB method as described previously ([73]).

[2] = system: C. albicans SC5314 + S. epidermidis; assay: Mixed C. albicans-S. epidermidis biofilm, selective plating CFU; format: cell-based, Candida albicans + Staphylococcus epidermidis; conditions: 37°C; for activity at 25 µM: 25 μM compound
Description: Overnight cultures of C. albicans SC5314 (YPD) and S. epidermidis (TSB) were diluted in RPMI 1640 medium to OD600s of 0.05 and 0.01, respectively. Equal volumes of the cell suspensions of each organism were mixed before use. One hundred microliters of this mixed cell suspension together with compound was added to the wells of a round-bottom microtiter plate (TPP; Trasadingen, Switzerland) in triplicate. Concentrations of 25 μM (0.0625% DMSO or ethanol) and 100 μM (0.25% DMSO or ethanol) were tested. After 24 h of incubation at 37°C, the biofilms were washed with PBS and fresh medium with or without compounds was added. After a further incubation for 48 h at 37°C, the biofilms were washed with PBS, after which the cells were resuspended in 100 μl of PBS by scraping them off, sonicated (1 min, 45 kHz; USC300-T; VWR, Radnor, PA, USA), and vigorously pipetted up and down. Finally, the biofilm cells were diluted in PBS and plated on YPD agar plates containing 100 mg/liter ampicillin and TSA plates containing 25 mg/liter amphotericin B to determine the number of fungal and bacterial CFU, respectively, after 2 days of incubation at 37°C. The percentage of C. albicans SC5314 and S. epidermidis cells relative to the number of cells after DMSO or ethanol control treatment was determined.

[3] = ATCC6538, read-out: BIC50 (concentration needed to inhibit biofilm formation by 50%), S. aureus ATCC 6538, 37°C
[4] = ATCC6538, read-out: IC50 (concentration needed to inhibit planktonic growth by 50%), S. aureus ATCC 6538, 37°C, planktonic OD600
[5] = PA14, P. aeruginosa PA14, 25°C, read-out: BIC50
[6] = PA14, P. aeruginosa PA14, 37°C, read-out: BIC50
[7] = PA14, P. aeruginosa PA14, 37°C, read-out: IC50 (planktonic growth)
[8] = read-out: % CFU survival, C. albicans
[9] = read-out: % CFU survival, S. epidermidis
[10] = 100 μM compound, read-out: % CFU survival, C. albicans
[11] = 100 μM compound, read-out: % CFU survival, S. epidermidis

| SMILES | IC50 (S. aureus ATCC 6538; [3]) | IC50 (S. aureus ATCC 6538; [4]) | IC50 (P. aeruginosa PA14; [5]) | IC50 (P. aeruginosa PA14; [6]) | IC50 (P. aeruginosa PA14; [7]) | IC50 [1] | IC50 (S. liquefaciens MG44; MG44, read-out: BIC50) | IC50 (S. liquefaciens MG44; MG44, read-out: IC50 (planktonic growth)) | IC50 (C. albicans SC5314) | activity at 25 µM [2, 8] | activity at 25 µM [2, 9] | activity at 100 µM [2, 10] | activity at 100 µM [2, 11] | IC50 (S. liquefaciens MG44; S. liquefaciens MG44, 25°C, read-out: BIC50) | IC50 (S. liquefaciens MG44; S. liquefaciens MG44, 25°C, read-out: IC50 (planktonic growth)) | % CFU survival, S. epidermidis ([2]; 100 μM compound) |
| --- | --- | --- | --- | --- | --- | --- | --- | --- | --- | --- | --- | --- | --- | --- | --- | --- |
| CC(C)CNc1ncc(-c2ccc(Cl)cc2)[nH]1 [Compound 3] | 95.3 µM | ~96.1 µM | 0.9 µM | > 400 µM | > 400 µM | 2 µM | 10.4 µM | 154 µM | 93.9 µM | 58.3% | 64.6% | 235% | 13.2% |  |  |  |
| Clc1ccc(-c2cnc(NC3CCCC3)[nH]2)cc1 [Compound 5] | 34.4 µM | 62.3 µM | 13.5 µM | > 400 µM | > 400 µM | 4.4 µM |  |  | 64 µM | 168% | 72% | 595% | 2.3% | 8.8 µM | 125 µM | complete inhibition |
